Measurements from patent US8076487B2, “Pyridone derivative and herbicide” (Kumiai Chemical Industry Co., Ltd., priority 2006, dated 2011).

Columns and labels:
Format in all cases: in vivo
[1] = test system: early watergrass (Echinochloa oryzicola Vasing); assay: Test Example 1: herbicidal effect by soil application to paddy field; conditions: paddy field soil application; active ingredient 1,000 g per 1 hectare; wettable powder added dropwise to water surface the day after sowing; examined on the 21st day after application
Outline: (§1)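 Under greenhouse conditions, seeds sown on puddled paddy soil in 100 cm2 pots under 3 cm of standing water received the test compound; injury was assessed with a standard scoring scheme three weeks (day 21) after treatment.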

[2] = test system: heartshape false pickerelweed (Monochoria vaginalis (Burm.f.) C.Presl); assay: as above; conditions: paddy field soil application; active ingredient 1,000 g per 1 hectare; wettable powder added dropwise to water surface the day after sowing; examined on the 21st day after application
Outline: as §1

[3] = test system: Japanese bulrush (Scirpus juncoides Roxb.); assay: as above; conditions: paddy field soil application; active ingredient 1,000 g per 1 hectare; wettable powder added dropwise to water surface the day after sowing; examined on the 21st day after application
Outline: as §1

[4] = test system: velvetleaf (Abutilon theophrasti medicus); assay: Test Example 3: herbicidal effect by application to upland field (foliage treatment); conditions: 14th day after application; for herbicidal effect (index), Velvetleaf: foliage treatment, plants grown two weeks, 1,000 g active ingredient per hectare; for herbicidal effect, Velvetleaf: foliage treatment, 1,000 g active ingredient per 1 hectare, greenhouse
Experimental: (§2) [table] Test Example 3 Test on Herbicidal Effect by Application to Upland Field In a 80 cm2 plastic pot, field soil was filled. Seeds of barnyardgrass (Echinochloa crus-galli (L.) P. Beauv. var. crus-galli), green foxtail (Setaria viridis (L.) P. Beauv.), velvetleaf (Abutilon theophrasti medicus), and slender amaranth (Amaranthus viridis L.) were sown and allowed to grow for two weeks in a greenhouse. Thereafter, the wettable powder prepared according to Formulation Example 1 was diluted in water and a 1,000 liter equivalent amount per 1 hectare so that the active ingredient becomes 1,000 g per 1 hectare was sprayed using a small sprayer from a top of the plants through its entire body for foliage treatment. Then, on the 14th day after the application to the plants grew in a greenhouse, the herbicidal effect was examined in accordance with a standard shown in Table 34.

[5] = test system: barnyardgrass (Echinochloa crus-galli (L.) P. Beauv. var. crus-galli); assay: as above; conditions: 14th day after application; for herbicidal effect (index), Barnyardgrass: foliage treatment, plants grown two weeks, 1,000 g active ingredient per hectare; for herbicidal effect, Barnyardgrass: foliage treatment, 1,000 g active ingredient per 1 hectare, greenhouse
Experimental: as §2

[6] = test system: green foxtail (Setaria viridis (L.) P. Beauv.); assay: as above; conditions: 14th day after application; for herbicidal effect (index), Green Foxtail: foliage treatment, plants grown two weeks, 1,000 g active ingredient per hectare; for herbicidal effect, Green Foxtail: foliage treatment, 1,000 g active ingredient per 1 hectare, greenhouse
Experimental: as §2

[7] = test system: slender amaranth (Amaranthus viridis L.); assay: as above; conditions: 14th day after application; for herbicidal effect (index), Slender Amaranth: foliage treatment, plants grown two weeks, 1,000 g active ingredient per hectare; for herbicidal effect, Slender Amaranth: foliage treatment, 1,000 g active ingredient per 1 hectare, greenhouse
Experimental: as §2

Row | Structure (SMILES) | herbicidal effect, Echinochloa oryzicola Vasing [1] | herbicidal effect, Monochoria vaginalis (Burm. f.) C. Presl [2] | herbicidal effect, Scirpus juncoides Roxb. [3] | herbicidal effect (index), Velvetleaf [4] | herbicidal effect (index), Barnyardgrass [5] | herbicidal effect (index), Green Foxtail [6] | herbicidal effect (index), Slender Amaranth [7] | herbicidal effect, Velvetleaf [4] | herbicidal effect, Barnyardgrass [5] | herbicidal effect, Green Foxtail [6] | herbicidal effect, Slender Amaranth [7]
1 | CCn1c(C(F)(F)F)ccc(C(=O)C2=C(O)CCCC2=O)c1=O [I-2] | 5 (90% or more of herbicidal effect and crop phytotoxicity) | 5 (90% or more of herbicidal effect and crop phytotoxicity) | 5 (90% or more of herbicidal effect and crop phytotoxicity) | 5 (90% or more of herbicidal effect and crop phytotoxicity) | 5 (90% or more of herbicidal effect and crop phytotoxicity) | 5 (90% or more of herbicidal effect and crop phytotoxicity) | 5 (90% or more of herbicidal effect and crop phytotoxicity) | – | – | – | –
2 | C=C(C)Cn1c(C(F)(F)F)ccc(C(=O)C2=C(O)CCCC2=O)c1=O [I-12] | 5 (90% or more of herbicidal effect and crop phytotoxicity) | 5 (90% or more of herbicidal effect and crop phytotoxicity) | 5 (90% or more of herbicidal effect and crop phytotoxicity) | 5 (90% or more of herbicidal effect and crop phytotoxicity) | 5 (90% or more of herbicidal effect and crop phytotoxicity) | 5 (90% or more of herbicidal effect and crop phytotoxicity) | 5 (90% or more of herbicidal effect and crop phytotoxicity) | – | – | – | –
3 | CC(C)=CCCn1c(C(F)(F)F)ccc(C(=O)C2=C(O)CCCC2=O)c1=O [I-13] | 5 (90% or more of herbicidal effect and crop phytotoxicity) | 5 (90% or more of herbicidal effect and crop phytotoxicity) | 5 (90% or more of herbicidal effect and crop phytotoxicity) | 5 (90% or more of herbicidal effect and crop phytotoxicity) | 5 (90% or more of herbicidal effect and crop phytotoxicity) | 5 (90% or more of herbicidal effect and crop phytotoxicity) | 5 (90% or more of herbicidal effect and crop phytotoxicity) | – | – | – | –
4 | C#CCn1c(C(F)(F)F)ccc(C(=O)C2=C(O)CCCC2=O)c1=O [I-14] | 5 (90% or more of herbicidal effect and crop phytotoxicity) | 5 (90% or more of herbicidal effect and crop phytotoxicity) | 5 (90% or more of herbicidal effect and crop phytotoxicity) | 5 (90% or more of herbicidal effect and crop phytotoxicity) | 5 (90% or more of herbicidal effect and crop phytotoxicity) | 5 (90% or more of herbicidal effect and crop phytotoxicity) | 5 (90% or more of herbicidal effect and crop phytotoxicity) | – | – | – | –
5 | CC(CCn1c(C(F)(F)F)ccc(C(=O)C2=C(O)CCCC2=O)c1=O)=C(F)F [I-27] | 5 (90% or more of herbicidal effect and crop phytotoxicity) | 5 (90% or more of herbicidal effect and crop phytotoxicity) | 5 (90% or more of herbicidal effect and crop phytotoxicity) | 5 (90% or more of herbicidal effect and crop phytotoxicity) | 4 (70 to less than 90% of herbicidal effect and crop phytotoxicity) | 3 (50 to less than 70% of herbicidal effect and crop phytotoxicity) | 5 (90% or more of herbicidal effect and crop phytotoxicity) | – | – | – | –
6 | CC(CCCCn1c(C(F)(F)F)ccc(C(=O)C2=C(O)CCCC2=O)c1=O)=C(F)F [I-28] | 5 (90% or more of herbicidal effect and crop phytotoxicity) | 5 (90% or more of herbicidal effect and crop phytotoxicity) | 4 (70 to less than 90% of herbicidal effect and crop phytotoxicity) | 5 (90% or more of herbicidal effect and crop phytotoxicity) | 5 (90% or more of herbicidal effect and crop phytotoxicity) | 5 (90% or more of herbicidal effect and crop phytotoxicity) | 5 (90% or more of herbicidal effect and crop phytotoxicity) | – | – | – | –
7 | COCCCn1c(C(F)(F)F)ccc(C(=O)C2=C(O)CCCC2=O)c1=O [I-42] | 5 (90% or more of herbicidal effect and crop phytotoxicity) | 5 (90% or more of herbicidal effect and crop phytotoxicity) | 5 (90% or more of herbicidal effect and crop phytotoxicity) | 5 (90% or more of herbicidal effect and crop phytotoxicity) | 5 (90% or more of herbicidal effect and crop phytotoxicity) | 5 (90% or more of herbicidal effect and crop phytotoxicity) | 5 (90% or more of herbicidal effect and crop phytotoxicity) | – | – | – | –
8 | CC(Cn1c(C(F)(F)F)ccc(C(=O)C2=C(O)CCCC2=O)c1=O)OCc1ccccc1 (stereo not shown) [I-43] | 5 (90% or more of herbicidal effect and crop phytotoxicity) | 4 (70 to less than 90% of herbicidal effect and crop phytotoxicity) | 5 (90% or more of herbicidal effect and crop phytotoxicity) | 5 (90% or more of herbicidal effect and crop phytotoxicity) | 5 (90% or more of herbicidal effect and crop phytotoxicity) | 4 (70 to less than 90% of herbicidal effect and crop phytotoxicity) | 5 (90% or more of herbicidal effect and crop phytotoxicity) | – | – | – | –
9 | CS(=O)(=O)Cn1c(C(F)(F)F)ccc(C(=O)C2=C(O)CCCC2=O)c1=O [I-47] | 5 (90% or more of herbicidal effect and crop phytotoxicity) | 5 (90% or more of herbicidal effect and crop phytotoxicity) | 5 (90% or more of herbicidal effect and crop phytotoxicity) | 5 (90% or more of herbicidal effect and crop phytotoxicity) | 5 (90% or more of herbicidal effect and crop phytotoxicity) | 4 (70 to less than 90% of herbicidal effect and crop phytotoxicity) | 5 (90% or more of herbicidal effect and crop phytotoxicity) | – | – | – | –
10 | O=C1CCCC(O)=C1C(=O)c1ccc(C(F)(F)F)n(CSC2CCCCC2)c1=O [I-61] | 5 (90% or more of herbicidal effect and crop phytotoxicity) | 5 (90% or more of herbicidal effect and crop phytotoxicity) | 4 (70 to less than 90% of herbicidal effect and crop phytotoxicity) | 5 (90% or more of herbicidal effect and crop phytotoxicity) | 5 (90% or more of herbicidal effect and crop phytotoxicity) | 4 (70 to less than 90% of herbicidal effect and crop phytotoxicity) | 5 (90% or more of herbicidal effect and crop phytotoxicity) | – | – | – | –
11 | CCCS(=O)(=O)Cc1c(Br)cc(C(=O)C2=C(O)CCCC2=O)c(=O)n1-c1ccccc1 [I-237] | – | – | – | – | – | – | – | 5 (90% or more of herbicidal effect and crop phytotoxicity) | 5 (90% or more of herbicidal effect and crop phytotoxicity) | 4 (70 to less than 90% of herbicidal effect and crop phytotoxicity) | 5 (90% or more of herbicidal effect and crop phytotoxicity)
12 | CCSCn1c(C(F)(F)F)ccc(C(=O)C2=C(O)C3CCC(C3)C2=O)c1=O (stereo not shown) [III-26] | – | – | – | – | – | – | – | 5 (90% or more of herbicidal effect and crop phytotoxicity) | 5 (90% or more of herbicidal effect and crop phytotoxicity) | 5 (90% or more of herbicidal effect and crop phytotoxicity) | 5 (90% or more of herbicidal effect and crop phytotoxicity)
13 | CC[S+]([O-])Cn1c(C(F)(F)F)ccc(C(=O)C2=C(O)C3CCC(C3)C2=O)c1=O (stereo not shown) [III-27] | – | – | – | – | – | – | – | 5 (90% or more of herbicidal effect and crop phytotoxicity) | 5 (90% or more of herbicidal effect and crop phytotoxicity) | 5 (90% or more of herbicidal effect and crop phytotoxicity) | 5 (90% or more of herbicidal effect and crop phytotoxicity)
